Data as given in patent US20130203843A1, “MILD CATIONIC MITOCHONDRIAL UNCOUPLERS” (LIMITED LIABILITY COMPANY MITOTECH, priority 2010, published 2013).

Assays:
ischemized rats = experiment: Cerebral ischemia in rats (middle cerebral artery blockage): MRT infarct volume and neurological deficit; assay type: in vivo; conditions: rat, i.p. 100 nmol/kg 24 hours before ischemia, 1 day after surgery
Procedure: FIG. 7. Results of behavioral tests in rats before and at the first day after induction of ischemia. Bar “baseline” indicates final points in animals before surgery; “SO”—points in sham-operated animals; “ischemia+saline”—points in ischemized animals without treatment, with saline solution instead of the preparation; “ischemia+C12R19 0.1 μM” and “ischemia+C12R19 2 μM”—points in ischemized animals with treatment with preparation C12R19 at indicated concentrations. Statistically significant (p<0.01) reduction in severity of neurological deficit in rats treated with C12R19, denoted as
Cerebral ischemia in rats was induced by insertion of nylon thread with silicone coating into the middle cerebral artery. Blockage of the blood flow was maintained for 60 min, after which the thread was removed from the vessel restoring the blood flow in the middle cerebral artery. During and after the surgery the body temperature of the animal was maintained at 37° C. Sham-operated animals were subjected to the same procedures, except for cutting vessels and insertion of thread. The volume of cerebral infarction was determined at the first day to study neuroprotective effects of preparations. […]
1 day after surgery, neurological deficit was determined in rats in the test “Stimulation of legs” and magnetic resonance imaging of the brain was performed. […]

[1] = test system: whole yeast (Saccharomyces cerevisiae) cells; experiment: Rate of oxygen consumption by whole yeast cells; assay type: cell-based; conditions: for stimulation of respiration versus suppression of growth: wide range of concentrations, yeast grown on nonfermentable substrate (glycerol)
Procedure: (§1) FIG. 3. Comparison of properties of C12R19 and C12RB based on relative rate of oxygen consumption by whole yeast (Saccharomyces cerevisiae) cells (A) and yeast growth rate (B). V/V0 corresponds to ratio of oxygen consumption rates after and before addition of uncoupler. Growth rate was defined as the number of CFU (colony-forming units) in cell suspension culture incubated for 2 hours in the presence of indicated concentration of rhodamine derivative.
(§2) FIG. 4. Comparison of stimulation of respiration and suppression of growth: (A) cationic (C12R19), and (B) anionic (FCCP) uncouplers in yeast (Saccharomyces cerevisiae) cells grown on nonfermentable substrate (glycerol). Stimulation of respiration was estimated based on the ratio of oxygen consumption rate in the presence of uncoupler (V) to initial rate (V0). Growth rate was assessed by increase in the number of cells for a given time interval. Growth rate in the absence of uncoupler was taken as 100%.
Simulation of respiration of whole yeast cells reflects uncoupling properties of tested compound.

[2] = test system: yeast cells treated with 80 μM amiodarone; experiment: Survival of yeast cells treated with amiodarone; assay type: cell-based, Saccharomyces cerevisiae
Procedure: FIG. 5. Comparison of resistance of yeast cells to 80 μM amiodarone in the presence of different concentrations of anionic (FCCP) and cationic (C12R19) uncouplers.
To test this, we compared the survival of yeast cells treated with 80 μM amiodarone in the presence of 1-10000 nmol/L FCCP and C12R19.

[3] = test system: yeast Saccharomyces cerevisiae; experiment: Yeast growth rate in the presence of uncoupler; assay type: cell-based; conditions: 5 μM; incubated for 2 hours
Procedure: as §1, §2
Under similar conditions experiments determining yeast growth rate in the presence of a given concentration of uncoupler were performed.

[4] = Dissipation of pH gradient in membranes of pyranine-loaded liposomes; conditions: for dissipation of pH gradient (intraliposomal pH change), protonophore activity: in the presence of valinomycin (10 nM), C12R19 and C12RB at 0.15 μM, pH 8 buffer
Procedure: FIG. 2. […] Intraliposomal pH was estimated based on the ratio of the intensities of fluorescence at 455 nm and 505 nm (excitation at 410 nm). 1 μM nigericin was added at 550 s for final pH adjustment. Control curve contained C12R19 but no valinomycin. Concentrations: C12R19 (150 nM), C12RB (150 nM), valinomycin (10 nM), lipid (75 μM). […] Control curve corresponds to addition of 10 nM valinomycin without protonophores. Buffer containing 10 mM MES, 10 mM MOPS, 10 mM TRICINE, and 0.1 M KCl (pH 8) was used.
This method was used in various studies on the protonophore activity and is described in detail in article: Chen Y, Schindler M, Simon S M (1999) J Biol Chem 274:18364-18373. […] Said measurements were performed in the presence of valinomycin, the K^+ ionophore.

[5] = Diffusion potential on planar bilayer lipid membrane ("black membrane" model); conditions: for formation of potential upon creation of gradient of the penetrating cation: 1 μM on cis side, same pH on both sides (pH=7); for formation of proton diffusion potential across lipid bilayer: 1 μM, pH_cis=7, pH_trans=8
Procedure: FIG. 1. A. C12R19, but not C12RB, induces formation of proton diffusion potential across planar lipid bilayer membrane prepared from DPhPC. Concentrations of C12R19 and C12RB are 1 μM. pH_cis=7, pH_trans=8. B. Formation of potential upon creation of gradient of penetrating cations C12RB and C12R19 (1 μM on cis side) at the same pH on both sides (pH=7).
To test penetrating ability of mitochondria-targeted compounds of structure (I), a method based on the ability of ions to penetrate through the bilayer phospholipid membrane moving along concentration gradient was used. The two chambers filled with an aqueous solution are separated by the bilayer membrane, the compound tested is added to one of the chambers. If a charged compound is capable of penetrating through the bilayer membrane, fast diffusion of the compound from the chamber with its high concentration to the chamber with its low concentration occurs, thus difference in the potentials is formed across the membrane. For ions carrying one charge and capable of passive penetrating through the membrane, the 10-fold concentration gradient allows to produce the potential of 60 mV at room temperature and ideal permeability (according to the Nernst equation).
This method was used in various studies on the ability of ions to penetrate through a bilipid membrane and is described in detail in article: Starkov A A, Bloch D A, Chernyak B V, Dedukhova V I, Mansurova S A, Symonyan R A, Vygodina T V, Skulachev V P, 1997, Biochem. Biophys Acta, 1318, 159-172. With this method, C12-R19 (compound of structure (I)) was tested.
It is known that addition of protonophore to such a system should lead to formation of the electric potential due to the flow of protons. […] This can be explained by shunting of potential due to induction of proton conductivity in the presence of C12R19.

[6] = test system: rats with induced rhabdomyolysis; experiment: Rhabdomyolysis-induced acute renal failure in rats; assay type: in vivo; conditions: rat; i.p. 100 nmol/kg per injection, total 400 nmol/kg; 48 h after glycerol; versus rhabdomyolysis without treatment
Procedure: FIG. 6. Creatinine level in blood of rats with induced rhabdomyolysis. Histogram bar “control” indicates level of creatinine in control group of animals; “rhabdo”—creatinine level in animals with rhabdomyolysis; “rhabdo+C12-R19”—creatinine level in animals with rhabdomyolysis and treatment with C12R19. All data are presented as mean±standard error of measurement.
Induction of rhabdomyolysis was performed according to standard method by injecting rat leg muscles with 50% aqueous glycerol solution (ICN, USA). At the second day after ischemia, blood samples from animals were taken. Creatinine concentration in blood was determined using a CellTac blood analyzer (Nihon Kohben). Experiments on modeling of rhabdomyolysis were performed with at least 8 animals from each group. All data are presented as mean±standard error of measurement.
For the treatment, the following scheme of C12R19 administration was used: intraperitoneal injection of the preparation 1 h after induction of rhabdomyolysis and then three times every 12 hours at a dose of 100 nmol/kg per injection. Thus, an animal received a total dose of 400 nmol/kg of C12R19.

[7] = test system: yeast cells treated with 80 μM amiodarone; conditions: earlier publication (Pozniakovsky 2005); cited from earlier work
obese people = obese people treated with DNP; cited from earlier work

Q: For CCCCCCCCCCCCOC(=O)c1ccccc1-c1c2cc(C)c(=NCC)cc-2oc2cc(NCC)c(C)cc12 (stereo in doubt) [C12R19, Dodecyl-2-[(3E)-6-(ethylamino)-3-(ethylimino)-2,7-dimethyl-3H-xanthen-9-yl]benzoate bromide], which “neurological deficit, test "Stimulation of legs" (14-point scale)” value (ischemized rats; control rats 2.0±0.2, p<0.01) is on record?
A: Its value is 5.3±1.1 points.

Q: What about the “volume of ischemic damage (T2-weighted MRT)” value (ischemized rats; saline = 100±8.6%) of the same compound?
A: Its value is 80.4±11.5%.

Q: And the “rate of respiration of whole yeast cells” value ([1]; concentration range that includes 5 μM)?
A: Its value is “marked stimulation of the rate of respiration”.

Q: What about the “rate of respiration of whole yeast cells” value ([1]; up to a concentration of 15 μM) of the same compound?
A: Its value is “did not reduce the rate of respiration”.

Q: And the “stimulation of respiration versus suppression of growth” value [1]?
A: The value was “increases respiration rate without inhibiting yeast growth”.

Q: And the “concentration range of cationic uncoupler relative to FCCP” value [2]?
A: The value was “at least an order of magnitude higher”.

Q: What about the “concentration range protecting cells against amiodarone” value ([2]; 1-10000 nmol/L tested) of the same compound?
A: Its value is 1 to 1000 nmol/L.

Q: What about the “yeast growth rate (CFU)” value [3] of the same compound?
A: Its value is “significant reduction in the growth rate of the yeast Saccharomyces cerevisiae is not observed”.

Q: What about the “intraliposomal pH changes” value ([4]; in the absence of valinomycin, C12R19 150 nM) of the same compound?
A: Its value is “pH changes did not occur”.

Q: And the “dissipation of pH gradient (intraliposomal pH change), protonophore activity” value [4]?
A: Its value is “significant changes of intraliposomal pH on the time-scale of minutes”.

Q: And the “formation of potential upon creation of gradient of the penetrating cation” value [5]?
A: Its value is “did not”.

Q: And the “formation of proton diffusion potential across lipid bilayer” value [5]?
A: Its value is “can generate potential”.

Q: And the “creatinine level in blood” value [6]?
A: Its value is “decrease in creatinine level in blood”.

Q: For CC(C)[C@@H]1NC(=O)[C@H](C)OC(=O)[C@@H](C(C)C)NC(=O)[C@@H](C(C)C)OC(=O)[C@H](C(C)C)NC(=O)[C@H](C)OC(=O)[C@@H](C(C)C)NC(=O)[C@@H](C(C)C)OC(=O)[C@H](C(C)C)NC(=O)[C@H](C)OC(=O)[C@@H](C(C)C)NC(=O)[C@@H](C(C)C)OC1=O [valinomycin], which “proton flux on liposomes by valinomycin itself” value ([4]; control experiments, data not shown) is on record?
A: The value was “does not induce proton flux on liposomes”.

Q: With CCCCCCCCCCCCOC(=O)c1ccccc1-c1c2ccc(N(CC)CC)cc2[o+]c2cc(N(CC)CC)ccc12 [C12RB] as the compound, how does the “rate of respiration of whole yeast cells” value ([1]; concentration of 4 μM) read?
A: Its value is “significant increase in the rate of respiration”.

Q: What about the “rate of respiration of whole yeast cells” value ([1]; further increase in concentration above 4 μM) of the same compound?
A: The value was “inhibition of respiration”.

Q: What about the “dissipation of pH gradient (intraliposomal pH change), protonophore activity” value [4] of the same compound?
A: The value was “practically no activity”.

Q: What about the “formation of potential upon creation of gradient of the penetrating cation” value [5] of the same compound?
A: The value was “induced the potential upon addition at one side”.

Q: What about the “formation of proton diffusion potential across lipid bilayer” value [5] of the same compound?
A: Its value is “but not C12RB, can generate potential”.

Q: For N#CC(C#N)=NNc1ccc(OC(F)(F)F)cc1 [FCCP], which “uncoupling efficiency estimated from rate of oxygen consumption” value ([1]; FCCP compared with C12R19) is on record?
A: The value was “much higher than that of C12R19”.

Q: And the “stimulation of respiration versus suppression of growth” value [1]?
A: Its value is “in contrast to FCCP”.

Q: And the “yeast cell death caused by amiodarone” value [7]?
A: Its value is “prevents yeast cell death caused by amiodarone”.

Q: What about the “dissipation of pH gradient (intraliposomal pH change), protonophore activity” value [4] of the same compound?
A: Its value is “significantly greater activity”.

Q: Which “side effects in patients” value (obese people) does the source give for O=[N+]([O-])c1ccc(O)c([N+](=O)[O-])c1 [DNP, 2,4-dinitrophenol] here?
A: Its value is “many of them showed severe side effects”.

Q: What about the “weight loss in patients” value (obese people) of the same compound?
A: Its value is “virtually all of the patients lost weight”.
